The values below come from patent US20140349970A1 (ABBVIE INC., priority 2009, published 2014).

One assay deals with T1, Syk catalytic domain (aa 356-635 with a C-terminal His-tag) (Homo sapiens, UniProt P43405).
T1 construct: His-tag (C); made in house
The assay is described as follows: In vitro Syk kinase activity measured by trFRET, Syk catalytic domain. The format is biochemical.
Conditions: not given
An outline of the steps: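 Kinase reaction: 0.14 nM His-tagged catalytic domain, 0.2 μM biotin-TYR1 peptide, 0.001 mM ATP in 50 mM MOPSO pH 6.5 with MgCl2, MnCl2, DTT, BSA, vanadate, ~60 min at rt, then EDTA quench. Phosphoproduct detected by trFRET (Eu anti-pTyr antibody/streptavidin-APC, 665 nm emission); IC50 from signal in linear range.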
Broadly, the IC50 is the concentration that gives 50% inhibition. Low readings indicate greater potency, high ones weaker potency. `Cn1ncc2cnc3[nH]c(-c4ccc[nH]4)cc3c21` [T.3.1.2] yielded an IC50 of 100 to 1000 nM. Compound `COc1ccc(-c2nc([C@H]3CCC[C@@H](N)C3)n3c2cnc2[nH]ccc23)cc1` [T.3.1.3] displayed a 50% inhibitory concentration (IC50) of 100 to 1000 nM. Same read-out and setting: for `COc1ccc(-c2nc(CN3CCNCC3)n3c2cnc2[nH]ccc23)cc1` [T.3.1.4] the value was 100 to 1000 nM; for `c1cc2c(ncc3c(-c4ccc(OC5CCNC5)cc4)ncn32)[nH]1` (stereo not drawn) [T.3.1.5], 100 to 1000 nM. Same read-out and setting: for `COc1ccc(-c2nc(CN3CCNC(CO)C3)n3c2cnc2[nH]ccc23)cc1` (stereo not drawn) [T.3.1.6] the value was 100 to 1000 nM; for `CS(=O)(=O)c1ccc(-c2nc(COCCN)n3c2cnc2[nH]ccc23)cc1` [T.4.1.1], 100 to 1000 nM; for `CC(C)(O)c1ccc(-c2nc(CC3CCNCC3)n3c2cnc2[nH]ccc23)cc1` [T.4.1.2], less than 100 nM. On the same count and under the same terms, for `CC(C)(N)CCc1nc(-c2ccc(C(C)(C)O)cc2)c2cnc3[nH]ccc3n12` [T.4.1.3] the value was 100 to 1000 nM. In turn, `CC(=O)c1ccc(-c2nn(C)c3c2cnc2[nH]ccc23)cc1` [W.1.1, 1-(4-(1-Methyl-1,6-dihydropyrazolo[3,4-d]pyrrolo[2,3-b]pyridin-3-yl)phenyl)ethanone] returned an IC50 of 100 to 1000 nM.

Staying with this assay, now noted: Syk catalytic domain (aa 356-635), trFRET, 0.001 mM ATP.
In turn, `CS(=O)(=O)c1cccc(-c2cc3c(ncc4cnc(CCCN)n43)[nH]2)c1` [T.1.1.6] registered an IC50 of 100 to 1000 nM. `COc1ccc2c(c1)c(-c1cc3c(ncc4cnc(CN)n43)[nH]1)cn2C` [T.2.1, (7-(5-Methoxy-1-methyl-1H-indol-3-yl)-6H-imidazo[1,5-a]pyrrolo[2,3-e]pyrazin-1-yl)methanamine] came in with a 50% inhibitory concentration (IC50) of 100 to 1000 nM. The same measure, in the same setting: for `Cn1ncc2cnc3[nH]c(-c4cccc(CN)c4)cc3c21` [T.3.1, (3-(1-Methyl-1,6-dihydropyrazolo[3,4-d]pyrrolo[2,3-b]pyridin-7-yl)phenyl)methanamine] the value was 1000 to 10000 nM.
